Source: article PMC3038857, “Using Nuclear Receptor Activity to Stratify Hepatocarcinogens” (PLoS ONE, 2011)
Where two headings read alike, the source gives them in different places.

Assays:
[1] = tested on: Rat Liver; conditions: ref ToxRefDB, cited from earlier work
[2] = target: T1, AHR (aryl hydrocarbon receptor) (Homo sapiens, UniProt P35869); assay: ATG_Ahr_CIS: Factorial reporter gene assay (multiplexed transcription reporter, HepG2); type: cell-based
T1 construct: endogenous in cells; host or cells: HepG2
T1 sequence (P35869 11-848): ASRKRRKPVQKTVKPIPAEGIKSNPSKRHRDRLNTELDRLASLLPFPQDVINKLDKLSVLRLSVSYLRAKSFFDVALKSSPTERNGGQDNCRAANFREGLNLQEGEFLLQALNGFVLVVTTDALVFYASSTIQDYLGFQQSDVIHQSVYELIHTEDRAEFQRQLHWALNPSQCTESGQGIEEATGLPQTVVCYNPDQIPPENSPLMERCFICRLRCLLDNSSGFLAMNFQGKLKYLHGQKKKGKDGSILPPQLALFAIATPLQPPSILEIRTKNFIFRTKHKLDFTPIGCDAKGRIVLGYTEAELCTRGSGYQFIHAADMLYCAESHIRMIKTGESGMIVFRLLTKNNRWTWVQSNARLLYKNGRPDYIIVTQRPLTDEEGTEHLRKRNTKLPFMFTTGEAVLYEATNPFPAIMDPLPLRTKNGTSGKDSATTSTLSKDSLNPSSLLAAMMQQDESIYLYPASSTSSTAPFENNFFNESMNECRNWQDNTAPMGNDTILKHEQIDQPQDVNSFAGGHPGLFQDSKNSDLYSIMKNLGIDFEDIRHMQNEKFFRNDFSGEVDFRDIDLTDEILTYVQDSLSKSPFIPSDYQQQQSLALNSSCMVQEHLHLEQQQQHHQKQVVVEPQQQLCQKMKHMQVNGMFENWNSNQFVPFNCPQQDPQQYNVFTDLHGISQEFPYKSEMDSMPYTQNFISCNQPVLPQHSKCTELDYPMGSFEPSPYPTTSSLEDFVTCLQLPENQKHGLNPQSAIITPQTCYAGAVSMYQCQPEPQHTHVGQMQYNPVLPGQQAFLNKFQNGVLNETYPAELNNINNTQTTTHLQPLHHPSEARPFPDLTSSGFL
Description: (§1) A multiple reporter transcription unit (MRTU) library consisting of 48 transcription factor binding sites was transfected into the HepG2 human liver hepatoma cell line. In addition to the cis-acting reporter genes (CIS), a modification of the approach was used to generate a trans-system (TRANS) with a mammalian one-hybrid assay consisting of an additional 25 MRTU library reporting the activity of nuclear receptor super-family members. […] These assays were performed by Attagene Inc. (Morrisville NC) under contract to EPA.
(§2) In addition to the cis-acting reporter genes (CIS), a modification of the approach was used to generate a trans-system (TRANS) with a mammalian one-hybrid assay consisting of an additional 25 MRTU library reporting the activity of nuclear receptor super-family members. […] Chemicals were then tested in the CIS and TRANS assays at seven concentrations starting at the MTC and followed by three-fold serial dilutions. These assays were performed by Attagene Inc. (Morrisville NC) under contract to EPA. Detailed description of the methods, data and analysis methods for this dataset will be presented in a separate publication.

[3] = target: T2, PXR (NR1I2) (Homo sapiens, UniProt O75469); assay: ATG_PXRE_CIS: Factorial reporter gene assay (HepG2); type: cell-based; design: endogenous in cells; host or cells: HepG2
T2 sequence (O75469 1-434): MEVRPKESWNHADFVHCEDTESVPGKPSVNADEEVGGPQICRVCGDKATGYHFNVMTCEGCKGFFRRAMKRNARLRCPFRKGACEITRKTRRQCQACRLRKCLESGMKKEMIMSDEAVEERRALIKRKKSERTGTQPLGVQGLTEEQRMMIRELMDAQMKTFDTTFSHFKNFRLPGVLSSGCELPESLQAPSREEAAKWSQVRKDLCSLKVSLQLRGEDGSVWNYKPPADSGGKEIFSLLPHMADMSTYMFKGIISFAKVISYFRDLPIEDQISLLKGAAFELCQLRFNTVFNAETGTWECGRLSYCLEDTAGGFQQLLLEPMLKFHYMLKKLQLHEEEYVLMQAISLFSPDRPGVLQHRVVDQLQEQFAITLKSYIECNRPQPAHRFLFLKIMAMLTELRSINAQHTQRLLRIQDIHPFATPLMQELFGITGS
In short: (§3)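 Seven test concentrations were run, beginning at the MTC and diluted three-fold serially. PXRE activity came from cis reporters, a 48-site MRTU library in HepG2 hepatoma cells. ERRg, FXR and PPARg activity came from trans one-hybrid reporters, an additional 25-member MRTU set.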

[4] = tested on: Rat Liver; conditions: ref ToxRefDB, cited from earlier work; remark: listed apart in the source
[5] = tested on: Rat Liver; conditions: ref ToxRefDB, cited from earlier work; remark: listed apart in the source
[6] = tested on: CYP1A2; assay: CLZD_CYP1A2: Change in expression of CYP1A2 (primary human hepatocytes); type: cell-based; conditions: 24 hr
In short: (§4)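 Five-point concentration series (0.004-40 µM) applied to primary human hepatocytes; 6/24/48 hr timepoints; transcript quantified by multiplexed nuclease protection.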

[7] = target: T3, PPARG (peroxisome proliferator-activated receptor gamma) (Homo sapiens, UniProt P37231); assay: ATG_PPARg_TRANS: Factorial reporter gene assay (HepG2); type: cell-based; conditions: HepG2
T3 construct: expressed in transfected cells; host or cells: HepG2
T3 sequence (P37231 1-505): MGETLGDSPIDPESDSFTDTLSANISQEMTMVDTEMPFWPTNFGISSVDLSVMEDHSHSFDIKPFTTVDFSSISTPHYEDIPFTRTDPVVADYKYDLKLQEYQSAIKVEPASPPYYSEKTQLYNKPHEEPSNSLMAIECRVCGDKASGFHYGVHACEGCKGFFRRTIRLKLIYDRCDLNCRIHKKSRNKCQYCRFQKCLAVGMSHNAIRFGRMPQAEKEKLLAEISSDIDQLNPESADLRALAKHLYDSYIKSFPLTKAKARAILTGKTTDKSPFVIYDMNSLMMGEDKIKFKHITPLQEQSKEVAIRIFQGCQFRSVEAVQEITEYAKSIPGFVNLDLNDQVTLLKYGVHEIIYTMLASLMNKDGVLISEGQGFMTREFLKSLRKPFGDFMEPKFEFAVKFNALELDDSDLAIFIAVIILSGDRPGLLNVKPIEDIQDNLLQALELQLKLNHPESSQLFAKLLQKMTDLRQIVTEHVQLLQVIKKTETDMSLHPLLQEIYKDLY
In short: as §3

[8] = tested on: Mouse Liver; conditions: ref ToxRefDB, cited from earlier work
[9] = target: T4, ESR1 (estrogen receptor 1) (Homo sapiens, UniProt P03372); assay: ATG_ERa_TRANS: Factorial reporter gene assay (HepG2); type: cell-based
T4 construct: expressed in transfected cells; host or cells: HepG2
T4 sequence (P03372 whole entry): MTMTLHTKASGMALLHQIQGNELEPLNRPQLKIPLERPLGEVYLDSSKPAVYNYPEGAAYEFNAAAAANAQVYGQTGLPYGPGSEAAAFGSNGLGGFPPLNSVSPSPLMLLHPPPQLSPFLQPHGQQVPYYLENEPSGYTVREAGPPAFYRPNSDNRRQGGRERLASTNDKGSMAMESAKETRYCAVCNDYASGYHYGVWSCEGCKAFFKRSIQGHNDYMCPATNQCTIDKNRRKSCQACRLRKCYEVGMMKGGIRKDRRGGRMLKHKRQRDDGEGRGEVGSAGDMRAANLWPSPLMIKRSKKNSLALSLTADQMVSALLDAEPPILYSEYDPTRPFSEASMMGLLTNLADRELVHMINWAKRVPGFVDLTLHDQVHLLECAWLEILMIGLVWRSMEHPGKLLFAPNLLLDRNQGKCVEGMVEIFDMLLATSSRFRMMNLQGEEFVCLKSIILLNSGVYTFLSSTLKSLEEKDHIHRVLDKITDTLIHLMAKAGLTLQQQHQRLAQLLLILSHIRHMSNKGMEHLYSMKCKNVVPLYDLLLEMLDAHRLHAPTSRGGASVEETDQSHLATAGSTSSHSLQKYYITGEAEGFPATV
Description: as §1, §2

[10] = tested on: Mouse Liver; conditions: chronic study, mouse liver; ref ToxRefDB; cited from earlier work
[11] = tested on: Mouse Liver; conditions: chronic study, mouse liver; ref ToxRefDB; cited from earlier work; remark: listed apart in the source
[12] = tested on: CYP3A4; assay: CLZD_CYP3A4: Change in expression of CYP3A4 (primary human hepatocytes); type: cell-based; conditions: 24 hr
In short: as §4

[13] = tested on: CYP2B6; assay: CLZD_CYP2B6: Change in expression of CYP2B6 (primary human hepatocytes); type: cell-based; conditions: 24 hr
In short: as §4

[14] = target: T2, PXR (NR1I2); assay: ATG_PXR_TRANS: Factorial reporter gene assay (HepG2); type: cell-based; design: endogenous in cells; host or cells: HepG2; conditions: HepG2
Description: as §1, §2

[15] = target: T5, PXR Human (NR1I2) (Homo sapiens, UniProt O75469); assay: NCGC_PXR_Agonist_human: GAL4 BLAM Reporter gene assay: PXR Human; type: cell-based; conditions: agonist mode
T5 sequence (O75469 146-434 limits assumed): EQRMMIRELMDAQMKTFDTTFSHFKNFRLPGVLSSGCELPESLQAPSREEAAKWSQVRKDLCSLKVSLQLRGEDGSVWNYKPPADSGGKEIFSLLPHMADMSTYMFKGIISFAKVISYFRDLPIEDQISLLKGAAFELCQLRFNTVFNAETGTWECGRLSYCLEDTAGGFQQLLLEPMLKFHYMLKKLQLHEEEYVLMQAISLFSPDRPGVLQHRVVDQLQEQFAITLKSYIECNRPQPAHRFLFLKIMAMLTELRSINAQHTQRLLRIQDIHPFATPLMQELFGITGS
Description: These assays measure binding constants and enzyme inhibition values for nuclear receptors. The targets include [drawing 67] , [drawing 68] , [drawing 69] , [drawing 70] , [drawing 71] , [drawing 72] , [drawing 73] , [drawing 74] , [drawing 75] and [drawing 76] . Each of the nuclear receptor targets was measured in agonist mode. Assays were run at the NIH Chemical Genomics Center (Rockville, MD).
Cell-based HTS Assays: These assays measuring binding constants and enzyme inhibition values for nuclear receptors. The targets include AR, ER, FXR, LXR, PPARα, PPARδ, PPARγ, RXRα, RXRβ and PXR. Each of the nuclear receptor targets was measured in both agonist and antagonist mode, but the antagonist data is still undergoing analysis due to possible interference between cytotoxicity and assay activity, so antagonist mode data were not used in the present analysis. Assays were run at the NIH Chemical Genomics Center (Rockville, MD) as part of the Tox21 collaboration. […] The R^2 was required to be ≥0.5. Values where only the highest concentration exceeded 50% activity were excluded to eliminate weak or false positives. Detailed description of the methods, data and analysis methods for this dataset will be presented in a separate publication.

[16] = target: T2, PXR (NR1I2); assay: NVS_NR_hPXR: Human PXR Fluormone PXR (SXR) green (cell-free HTS); type: binding
Source text: These are a collection of biochemical assays measuring binding constants and enzyme inhibition values. Chemicals were initially screened at a single concentration in duplicate wells at a concentration of 10 [drawing 63] M for cytochrome P-450 assays and 25 [drawing 64] M for all others. […] These assays were run by Caliper Life Sciences (Hanover, MD) under contract to EPA. Short assay descriptions are available at: http://www.caliperls.com/products/contract-research/in-vitro/.
Cell-free HTS Assays: A collection of biochemical assays measuring binding constants and enzyme inhibition values. […] These assays were run by Caliper Life Sciences (Hanover, MD) under contract to EPA. Short assay descriptions are available at http://www.caliperls.com/products/contract-research/in-vitro/. Values for all endpoints were imported into GeneData Screener (Basel, Switzerland) and normalised to solvent controls from the same plate as the tested compounds and expressed as percent of neutral control. Concentration-response curves were fit in GeneData Screener (Basel, Switzerland) Condeseo module using the Hill equation and AC50 values were determined. […] Detailed description of the methods, data and analysis methods for this dataset are described in a separate publication.

Compound: Nc1c(Cl)c(Cl)nc(C(=O)O)c1Cl [r245]
- CHR_Rat_Liver_2_PreneoplasticLesion ([1]; rat, chronic study): 0
- ATG_Ahr_CIS ([2]; HepG2): 4.523
- ATG_PXRE_CIS ([3]; HepG2): 4.26
- CHR_Rat_Liver_3_NeoplasticLesion ([4]; rat, chronic study): 0
- CHR_Rat_Liver_1_AnyLesion ([5]; rat, chronic study): 6
- CLZD_CYP1A2_24 [6]: 4.952

Compound: CCC(=O)C1C(=O)CC(C(=O)[O-])CC1=O.CCC(=O)C1C(=O)CC(C(=O)[O-])CC1=O.[Ca+2] (stereo not shown) [r254]
- CHR_Rat_Liver_2_PreneoplasticLesion ([1]; rat, chronic study): 0
- ATG_Ahr_CIS ([2]; HepG2): 4.215
- ATG_PPARg_TRANS [7]: 4.409
- CHR_Rat_Liver_3_NeoplasticLesion ([4]; rat, chronic study): 0
- CHR_Rat_Liver_1_AnyLesion ([5]; rat, chronic study): 0

Compound: O=c1n(Cl)c(=O)n(Cl)c(=O)n1Cl [r288]
- ATG_Ahr_CIS ([2]; HepG2 reporter): 4.509
- ATG_PXRE_CIS ([3]; HepG2 reporter): 4.337
- CLZD_CYP1A2_24 [6]: 5.117

Compound: Cc1c(F)c(F)c(COC(=O)C2C(/C=C(\Cl)C(F)(F)F)C2(C)C)c(F)c1F (stereo not shown) [r294]
- CHR_Mouse_Liver_1_AnyLesion ([8]; chronic study, mouse liver): 6
- ATG_ERa_TRANS ([9]; HepG2 reporter): 4.31
- CHR_Rat_Liver_2_PreneoplasticLesion ([1]; chronic study, rat liver): 0
- CHR_Mouse_Liver_2_PreneoplasticLesion [10]: 6
- CHR_Mouse_Liver_3_NeoplasticLesion [11]: 6
- ATG_PXRE_CIS ([3]; HepG2 reporter): 4.886
- CHR_Rat_Liver_3_NeoplasticLesion ([4]; chronic study, rat liver): 0
- CHR_Rat_Liver_1_AnyLesion ([5]; chronic study, rat liver): 0

Compound: COCC(=O)N(c1c(C)cccc1C)C(C)C(=O)OC (stereo not shown) [row 196]
- CHR_Mouse_Liver_1_AnyLesion ([8]; chronic mouse study, liver): 6
- CLZD_CYP3A4_24 [12]: 4.985
- CHR_Rat_Liver_2_PreneoplasticLesion ([1]; chronic rat study, liver): 0
- ATG_Ahr_CIS ([2]; HepG2): 4.149
- CLZD_CYP2B6_24 [13]: 5.11
- ATG_PXR_TRANS [14]: 4.854
- ATG_PXRE_CIS ([3]; HepG2): 4.796
- CHR_Rat_Liver_3_NeoplasticLesion ([4]; chronic rat study, liver): 0
- CHR_Rat_Liver_1_AnyLesion ([5]; chronic rat study, liver): 6

Compound: CNC(=S)[S-].O.O.O.[Na+] [row 197]
- ATG_Ahr_CIS ([2]; HepG2): 4.444
- ATG_PPARg_TRANS [7]: 4.569
- ATG_PXRE_CIS ([3]; HepG2): 4.167
- NCGC_PXR_Agonist_human [15]: 4.503

Compound: CCCCOC(=O)c1ccccc1C(=O)O [row 215]
- NVS_NR_hPXR [16]: 4.801
- ATG_Ahr_CIS ([2]; HepG2): 4.119

Compound: CCCCC(C#N)(Cn1cncn1)c1ccc(Cl)cc1 (stereo not shown) [row 217]
- CHR_Mouse_Liver_1_AnyLesion ([8]; chronic mouse study, liver): 6
- CLZD_CYP3A4_24 [12]: 5.217
- ATG_ERa_TRANS ([9]; HepG2): 4.398
- CHR_Rat_Liver_2_PreneoplasticLesion ([1]; chronic rat study, liver): 0
- CLZD_CYP2B6_24 [13]: 4.948
- ATG_PXRE_CIS ([3]; HepG2): 4.886
- CHR_Rat_Liver_3_NeoplasticLesion ([4]; chronic rat study, liver): 0
- CHR_Rat_Liver_1_AnyLesion ([5]; chronic rat study, liver): 6
- CLZD_CYP1A2_24 [6]: 5.223
